Data on 13 compounds can be found in patent publication US4880939A, “2,5,6,7-tetranor-18,18,19,19-tetradehydro-4,8-inter-m-phenylene PGI2 derivatives” (Toray Industries, priority 1986, dated 1989).

As usually defined, the IC50 is the concentration that gives 50% inhibition. For orientation: ED50 means the dose at which the effect has come halfway, by size or by number of responders.

Converted amounts (≈) assume the structure as drawn. Read-outs that look alike come from different tables or passages of the source.

For data set [1] the following is noted: background; cited from earlier work.
Data set [2] deals with lesions appearing on the stomach corpus. The data set is described as follows: Gastric cytoprotection activity (method of A. Robert; 0.2N NaOH-induced stomach lesions). As to conditions: dose reducing ulcer index to 50% of control, 30 minutes before 0.2N NaOH; for ED50 (gastric cytoprotection activity): oral; for ED50: po. It is filed as in vivo. As for the experimental part:
Gastric cytoprotection activity of the compounds of the present invention was investigated according to the method described by A. Robert in Gastroenterology, 77(3), 443 (1979).
A compound to be tested is orally administered to a group of animals and, 30 minutes later, 0.2N NaOH is orally applied to the animals. One hour later, the animals are sacrificed under anesthesia by chloroform and their stomachs are removed and fixed in 5% formalin solution. The stomach is then incised along the greater curvature. Lengths of lesions appearing on the stomach corpus are measured and summed. The total length is served as an ulcer index. A dose amount of a compound to be tested, by which the ulcer index is reduced to 50% of the index of a control group (100%), is designated as ED50.

Data set [3] concerns blood pressure in the carotid. Nature of the data set: Hypotensive activity. It is filed as in vivo, Wistar male rats. As to conditions: dose reducing blood pressure by 25 mmHg, injected via femoral artery, chloralose anesthesia; for ED (25 mmHg): Rattus norvegicus, read-out: ED25 (hypotensive activity). Here is the method:
A catheter is inserted into and held in the carotid of a group of Wistar male rats under anesthesia by chloralose. Another end of the catheter is connected to a polygraph with a pressure transducer to measure the blood pressure in the carotid. A compound to be tested is injected via a catheter connected to the femoral artery. A dose amount of a compound to be tested, by which the blood pressure is reduced by 25 mmHg in the dose-response curve of the hypotensive compound, is designated as ED25.

The subject of data set [4] is platelet aggregation. The data set is described as follows: Platelet aggregation-inhibiting activity (ADP-induced, platelet-rich plasma). It counts as cell-based, person. As to conditions: PRP, ADP 10 μM, compound added one minute before ADP; for IC50: Platelet. As for the experimental part: The blood taken from the cubital median vein of a person is centrifuged at 800 rpm for 10 minutes and the supernatant is used as platelet-rich plasma (PRP). The PRP is distributed into small test tubes, and adenosine diphosphate (ADP) is added at a final concentration of 10 μM thereinto to induce platelet aggregation. The size of the aggregation is determined in a platelet aggregation measuring apparatus (RiKa-Denki, Tokyo, Japan) by measuring the change in turbidity of a sample in the small test tube. A compound to be tested is added to the sample one minute before the addition of ADP. The concentration of the compound to be tested, by which the platelet aggregation is reduced to 50% of that observed in a control group, is designated as IC50.

Data set [5] concerns gastric acid secretion. The data set is described as follows: Gastric acid secretion-inhibiting activity, pylorus ligation method (Shay). It counts as in vivo. As to conditions: injected into duodenum, pylorus ligated rats, five hours, five animals; for ED50, Acidity (gastric acid secretion-inhibiting activity) / ED50, Gastric juice volume (gastric acid secretion-inhibiting activity): 300 min; for ED50: Rattus norvegicus, 5 h. As for the experimental part: Gastric acid secretion-inhibiting activity of the compounds of the present invention was investigated according to the pylorus ligation method described by Shay in Gastroenterology, 5, 43 (1945).
Under anesthesia by ether, the abdomen of a group of rats is incised at its median and the pylorus is ligated with a silk thread. Simultaneously, a compound to be tested is injected into the duodenum of the same rat. The abdomen is then closed. Five hours later, the abdomen is again incised and the esophagus is ligated. The whole stomach is then removed. The stomach is cut along the greater curvature and the contents of the stomach are transferred to a graduated centrifugal tube. After centrifugation at 3,000 rpm for 10 minutes, the volume of the gastric juice is measured. A portion of the supernatant is taken and titrated to pH 7 with 0.1N NaOH in a pH stat, Radio Meter Inc. An average dose amount of a compound to be tested in a group of five animals, by which either the volume of gastric juice (in ml) or the acidity (in mEq/ml) is reduced to 50% of the corresponding value of a control group, is designated as ED50.

Data set [6] relates to gastric acid secretion. The data set is described as follows: Gastric acid secretion-inhibiting activity, method of M. Ghosh and H. Schild (perfused stomach, pentagastrin stimulation). It counts as in vivo, male SD rats. As to conditions: ratio of index (area of pH time course) to that of PGE2; femoral vein injection; pentagastrin 0.05 μg/kg per minute. The source says: The gastric acid secretion-inhibiting activity of the compounds of the present invention was also investigated according to the method described by M. Ghosh and H. Schild, Br. J. Pharmacol., 13, 54 (1958).
A group of male SD rats is incised in the abdomen under anesthesia by urethane. The lumen of the stomach is perfused with saline through a double tube cannula which has been inserted into the stomach through a lumen formed in the cardia. The pH of draining gastric acid is monitored by a pH meter. The secretion of gatric acid is stimulated by continuous infusion of pentagastrin at a rate of 0.05 μg/kg per minute. When the pH of the gastric acid becomes stable at about 4.0, a compound to be tested is injected through the femoral vein. An index for the gastric acid secretion-inhibiting activity of a compound to be tested is calculated from the area surrounded by a curve drawn by the time course of the pH of the gastric acid, from the time point when an initial increase of the pH is observed due to the gastric acid secretion-inhibition by the compound injected to the time point when the pH comes back to the baseline. The index thus obtained is compared to that of PGE2 and the ratio of the index to that of PGE2 is calculated.

For data set [7] the following is noted: unstable exo-enol structure; converted into 6-oxo PGF1α; cited from earlier work.
The test system of data set [8] is platelet aggregation, gastric acid secretion, peripheral blood vessel. Conditions: background; cited from earlier work.
For data set [9] the following is noted: background; cited from earlier work. The source holds these as a separate data set.
Where [10] appears, read: acidity reduced to 50% of control.
[11] abbreviates: gastric juice volume reduced to 50% of control.
[12] abbreviates: acidity reduced to 50% of control, read-out: ED50, Acidity (gastric acid secretion-inhibiting activity).
The mark [13] stands for this setting: gastric juice volume reduced to 50% of control, read-out: ED50, Gastric juice volume (gastric acid secretion-inhibiting activity).

For `CCCCC[C@H](O)/C=C/[C@@H]1[C@@H](CC(=O)CCCCC(=O)O)[C@@H](O)C[C@H]1O` [6-oxo PGF1α], the physiological activity entry in data set [1] was “substantially inactive physiologically”.
Take `CC#CCC(C)C(O)C=CC1C(O)CC2Oc3c(CCC(=O)O)cccc3C21` [Compound 38, 16(R)-Methyl-2,5,6,7-tetranor-18,18,19,19-tetradehydro-4,8-inter-m-phenylene PGI2]: the “ED50 (gastric cytoprotection activity)” value in data set [2] stood at 24.1 µg/kg. In addition, the “ED25 (hypotensive activity)” value in data set [3] was 0.57 µg/kg. The “IC50 (platelet aggregation-inhibiting activity)” value in [4] is 6.5 ng/mL (≈ 16.9 nM). In addition, the “ED50, Acidity (gastric acid secretion-inhibiting activity)” value in data set [5] (setting [10]) was 490 µg/kg. In [5] (setting [11]), the “ED50, Gastric juice volume (gastric acid secretion-inhibiting activity)” value is over 1000 µg/kg.
The matching figures for `CC#CCC(C)C(O)C=CC1C(O)CC2Oc3c(CCC(=O)O)cccc3C21` [Compound 39, 16(S)-methyl-2,5,6,7-tetranor-18,18,19,19-tetradehydro-4,8-inter-m-phenylene PGI2]: 0.38 µg/kg, 0.07 µg/kg, 0.42 ng/mL (≈ 1.09 nM), 9.5 µg/kg and 25 µg/kg.
In data set [4], `CCC#CCC(C)C(O)C=CC1C(O)CC2Oc3c(CCC(=O)O)cccc3C21` (stereo not shown) [Compound 42, 16-Methyl-20a-homo-2,5,6,7-tetranor-18,18,19,19-tetradehydro-4,8-inter-m-phenylene PGI2] had an IC50 of 0.34 ng/mL (≈ 0.853 nM). Besides, the “Relative activity (PGE2 = 1), gastric acid secretion-inhibiting activity” value in [6] is 26. Besides, the results for the ED50 in data set [5] (setting [12]) and in data set [5] (setting [13]) were 23 µg/kg and 18 µg/kg, respectively.
With `CCCC#CCC(C)C(O)C=CC1C(O)CC2Oc3c(CCC(=O)O)cccc3C21` (stereo not shown) [Compound 46, 16-Methyl-20a,20b-dihomo-2,5,6,7-tetranor-18,18,19,19-tetradehydro-4,8-inter-m phenylene PGI2], the ED50 in data set [2] came out at 2.33 µg/kg; in data set [5] (setting [12]), 140 µg/kg; in [5] (setting [13]), 120 µg/kg. Further, in data set [3], the ED (25 mmHg) turned out to be 0.22 µg/kg. In data set [4], this compound had an IC50 of 0.96 ng/mL (≈ 2.33 nM).
On to `CCCCC#CCC(C)C(O)C=CC1C(O)CC2Oc3c(CCC(=O)O)cccc3C21` (stereo not shown) [Compound 50, 16-Methyl-20a,20b,20c-trihomo-2,5,6,7-tetranor-18,18,19,19-tetradehydro-4,8-inter-m-phenylene PGI2], for which the ED50 in [2] was 3.74 µg/kg; in [5] (setting [12]), 740 µg/kg; in data set [5] (setting [13]) it was 510 µg/kg. In addition, 0.63 ng/mL (≈ 1.48 nM) corresponded to half-maximal inhibition in data set [4] (IC50).
With `CC#CCC(C)(C)C(O)C=CC1C(O)CC2Oc3c(CCC(=O)O)cccc3C21` (stereo not shown) [Compound 54, 16,16-Dimethyl-2,5,6,7-tetranor-18,18,19,19-tetradehydro-4,8-inter-m-phenylene PGI2], the values for the ED50 in data set [2], in [5] (setting [12]) and in data set [5] (setting [13]) were 2.8 µg/kg, 230 µg/kg and over 300 µg/kg, respectively. The ED (25 mmHg) in data set [3] amounted to 0.64 µg/kg. The IC50 in data set [4] was determined as 7.3 ng/mL (≈ 18.3 nM). For the same compound, the “Relative activity (PGE2 = 1), gastric acid secretion-inhibiting activity” value in data set [6] worked out at 16.
Regarding `CCC#CCC(C)(C)C(O)C=CC1C(O)CC2Oc3c(CCC(=O)O)cccc3C21` (stereo not shown) [Compound 57, 16,16-Dimethyl-20a-homo-2,5,6,7-tetranor-18,18,19,19-tetradehydro-4,8-inter-m-phenylene PGI2], the figures for the ED50 in data set [2], in [5] (setting [12]) and in data set [5] (setting [13]) were 1.14 µg/kg, 87 µg/kg and 210 µg/kg, respectively. In addition, the ED (25 mmHg) in data set [3] amounted to 0.14 µg/kg. The compound further showed an IC50 in data set [4] of 3.2 ng/mL (≈ 7.76 nM). In addition, the “Relative activity (PGE2 = 1), gastric acid secretion-inhibiting activity” value in [6] was 5.3.
Turning to `CCCCC#CCC(C)(C)C(O)C=CC1C(O)CC2Oc3c(CCC(=O)O)cccc3C21` (stereo not shown) [Compound 60, 16,16-Dimethyl-20a,20b,20c-trihomo-2,5,6,7-tetranor-18,18,19,19-tetradehydro-4,8-inter-m-phenylene PGI2], in [4], half-maximal inhibition (IC50) required 3 ng/mL (≈ 6.81 nM). The “Relative activity (PGE2 = 1), gastric acid secretion-inhibiting activity” value in [6] is 0.5. For the same compound, the ED50 in data set [5] (setting [12]) and in data set [5] (setting [13]) was over 3000 µg/kg each time.
For `CCCCCC#CCC(C)(C)C(O)C=CC1C(O)CC2Oc3c(CCC(=O)O)cccc3C21` (stereo not shown) [Compound 64, 16,16-dimethyl-20a,20b,20c,20d-tetrahomo-2,5,6,7-tetranor-18,18,19,19-tetradehydro-4,8-inter-m-phenylene PGI2], the ED50 is 27.7 µg/kg in [2], over 10000 µg/kg in [5] (setting [12]) and 5600 µg/kg in [5] (setting [13]). In addition, the ED (25 mmHg) in [3] amounted to 15.5 µg/kg. In [4], this compound had an IC50 of 5.5 ng/mL (≈ 12.1 nM). In addition, the “Relative activity (PGE2 = 1), gastric acid secretion-inhibiting activity” value in data set [6] is 0.25.
Regarding `CC#CCC(C)(C)C(O)C=CC1C(O)CC2Oc3c(CCCO)cccc3C21` (stereo not shown) [Compound 69, 3-Decarboxy-3-hydroxymethyl-16,16-dimethyl-2,5,6,7-tetranor-18,18,19,19-tetradehydro-4,8-inter-m-phenylene PGI2], the ED50 in data set [2] is 0.82 µg/kg; in data set [5] (setting [12]), 270 µg/kg; in [5] (setting [13]), over 3000 µg/kg. Besides, the ED (25 mmHg) in data set [3] was over 100 µg/kg. Further, in data set [6], the “Relative activity (PGE2 = 1), gastric acid secretion-inhibiting activity” value worked out at 2.7.
For the compound `CCCCC[C@H](O)/C=C/[C@H]1[C@H](O)CC(=O)[C@@H]1C/C=C\CCCC(=O)O` [PGE2, reference compound], in data set [6], the “Relative activity (PGE2 = 1), gastric acid secretion-inhibiting activity” value turned out to be 1.
For `CCCCC[C@H](O)/C=C/[C@@H]1[C@H]2C/C(=C/CCCC(=O)O)O[C@H]2C[C@H]1O` [PGI2, Prostaglandin I2], in data set [7], the “stability in neutral aqueous solutions” value is reported as “extremely unstable”. Besides, in data set [8], the “gastric acid secretion-inhibiting activity” value is on record as “potent”, the “peripheral blood vessel-dilating activity” value is “potent” and the platelet aggregation-inhibiting activity entry is recorded as “potent”. Besides, in [9], the “duration of physiological activities in vivo” value is “only short duration” and the stability in vivo result is “unstable in vivo”.
